What was measured:
[1] = system: MC38 mouse colon cancer cell line; test: Antitumor efficacy in MC38 mouse model of colon adenocarcinoma (tumor volume, % TGI); assay type: in vivo, mouse (C57BL/6); details: day 10, Mifamurtide 30 μg biw and/or PD-1 antagonist 5 mg/kg biw
Source text: Six to seven-week-old female C57BL/6 mice (20±4 g weight) were used in the studies. Mice received food and water ad libitum. The study protocol, the procedures involving the care and use of animals were reviewed and approved by the Institutional Animal Care and Use Committee (IACUC) to ensure compliance with the regulations of the Association for Assessment and Accreditation of Laboratory Animal Care (AAALAC).
(§1) DMEM medium (Cat. No.: 11960-044). Glutamax™ (Cat. No.: 35050061), Trypsin-EDTA (0.25%) (Cat. No.: 25200-056), Penicillin-Streptomycin (Cat. No.: 15070-063), Hanks' Balanced Salt solution (Cat. No.: 14175-095) were procured form Gibco, while Fetal Bovine Serum (FBS) Cat. No.: 004-001-1A was purchased from Biological Industries. PD-1 antagonist (Cat. No.: BE0146) was supplied by BioXcell. Stock solutions of PD-1 antagonist at 1 mg/ml were kept at 4° C. prior to use. Dosing solutions of PD-1 antagonist were prepared freshly before every administration in sterile phosphate buffered saline (pH 7.0) and maintained at 4° C. The test article Mifamurtide was procured from Sigma (SML0195) and prepared freshly as a working solution at concentration of 300 μg/ml and 100 μg/ml in sterile phosphate buffered saline (pH 7.0), to be administered at a total dose of 30 μg (corresponds to 1.5 mg/kg in mice) and 10 μg (corresponds to 0.5 mg/kg in mice) respectively, into the animal as indicated in Table 1. Luminex assay kit: MCYTOMAG-70K-32 was commercially available from Millipore, was used to analyze the cytokines and chemokines in the serum samples.
MC38 mouse colon cancer cell line as provided by GenScript were maintained as monolayer culture in DMEM supplemented with 10% fetal bovine serum (FBS), 1% Glutamax™ and 1% Penicillin-Streptomycin at 37° C. in an atmosphere with 5% CO2. The cells were routinely sub-cultured every 2 days to maintain growth at exponential phase. The tumor cells growing in exponential growth phase were harvested by trypsinization, followed by centrifugation at 335×g relative centrifugal force (RCF) in a centrifuge. The supernatant was subsequently removed by aspiration. Cell pellet was re-suspended in approximately 10× volume of cell culture medium and counted. The cell suspension was centrifuged again and processed as above and finally re-suspended in HBSS at a density of 1×10^7 cells per ml. Cell viability was determined to be ≥95% by trypan blue staining. […]
Tumor size and body weights were measured twice weekly.
Tumor size was measured twice per week in 2 dimensions using a caliper (recorded up to one decimal point). Tumor volume, expressed in mm^3, was calculated using the following formula, in which “a” and “b” were the long and the short diameters of a tumor, respectively. […]

[2] = system: cytokines (IFN-γ, IL-6, IL-12p40, and TNF-α) and chemokines (MCP-1 and MIP-2); test: Luminex analysis of serum cytokines and chemokines in MC38 tumor bearing mice; assay type: in vivo, mouse (C57BL/6)
Description: as §1
The immuno-modulatory effect of Mifamurtide at dose of 30 μg (b.i.w.) in the presence and absence of PD-1 antagonist at dose 5 mg/kg (b.i.w.) was also analysed. Luminex analysis was done to check the levels of cytokines (IFN-γ, IL-6, IL-12p40, and TNF-α) and chemokines (MCP-1 and MIP-2). […] Although all Mifamurtide doses and combinations were tolerated with no early death and sustained effect on body weight (data not shown).

[3] = post (8 hours) vs pre, Mifamurtide 30 μg and/or PD-1 antagonist 5 mg/kg
[4] = post (Day 11) vs pre, Mifamurtide 30 μg and/or PD-1 antagonist 5 mg/kg
[5] = serum, 8 hours post dose, Mifamurtide 30 μg and/or PD-1 antagonist 5 mg/kg
[6] = serum, Day 11, Mifamurtide 30 μg and/or PD-1 antagonist 5 mg/kg
[7] = serum, before dosing, Mifamurtide 30 μg and/or PD-1 antagonist 5 mg/kg group

Mifamurtide
TGI % & SEM (with ref. to Mifamurtide) [1]: 0.00% | TGI % (±SEM) (with ref. to PD-1 Antagonist) [1]: −39.48% | TGI % (±SEM) (with ref. to vehicle) [1]: −8.36% | Tumor volume (mm^3) (±SEM) ([1]; mean, i.p.): 2791.64 mm^3 | IFN gamma, Fold change [2, 3]: 0.0 | IL-6, Fold change [2, 3]: 10.85 | MCP-1, Fold change [2, 3]: 1.5 | TNF-alpha, Fold change [2, 3]: 1.6 | IL-12p40, Fold change [2, 4]: 1.0 | MIP-2, Fold change [2, 4]: 0.7 | IFN gamma, Post (8 hours) [2, 5]: 0 picogram/ml | IL-6, Post (8 hours) [2, 5]: 14.43 picogram/ml | MCP-1, Post (8 hours) [2, 5]: 23.54 picogram/ml | TNF-alpha, Post (8 hours) [2, 5]: 3.33 picogram/ml | IL-12p40, Post (Day 11) [2, 6]: 1.55 picogram/ml | MIP-2, Post (Day 11) [2, 6]: 13.67 picogram/ml | IFN gamma, Pre [2, 7]: 0 picogram/ml | IL-6, Pre [2, 7]: 1.33 picogram/ml | IL-12p40, Pre [2, 7]: 1.55 picogram/ml | MCP-1, Pre [2, 7]: 15.9 picogram/ml | MIP-2, Pre [2, 7]: 20.84 picogram/ml | TNF-alpha, Pre [2, 7]: 2.13 picogram/ml

From patent US20190008918A1, “IMMUNOMODULATION THERAPIES FOR CANCER” (BIOXCEL CORPORATION, priority 2016, published 2019)
